In ChEMBL document CHEMBL1201862, “PubChem BioAssay data set” (2004):
Activity calls are given as the source filed them.

How the values were obtained:
[1] = target: T1, Replicative DNA helicase DnaB (Mycobacterium tuberculosis, UniProt P9WMR3); experiment: DnaB intein splicing inhibitors, dose response, biochemical, cell-free fluorescence (AID 449749); assay type: functional
T1 sequence (P9WMR3 whole entry): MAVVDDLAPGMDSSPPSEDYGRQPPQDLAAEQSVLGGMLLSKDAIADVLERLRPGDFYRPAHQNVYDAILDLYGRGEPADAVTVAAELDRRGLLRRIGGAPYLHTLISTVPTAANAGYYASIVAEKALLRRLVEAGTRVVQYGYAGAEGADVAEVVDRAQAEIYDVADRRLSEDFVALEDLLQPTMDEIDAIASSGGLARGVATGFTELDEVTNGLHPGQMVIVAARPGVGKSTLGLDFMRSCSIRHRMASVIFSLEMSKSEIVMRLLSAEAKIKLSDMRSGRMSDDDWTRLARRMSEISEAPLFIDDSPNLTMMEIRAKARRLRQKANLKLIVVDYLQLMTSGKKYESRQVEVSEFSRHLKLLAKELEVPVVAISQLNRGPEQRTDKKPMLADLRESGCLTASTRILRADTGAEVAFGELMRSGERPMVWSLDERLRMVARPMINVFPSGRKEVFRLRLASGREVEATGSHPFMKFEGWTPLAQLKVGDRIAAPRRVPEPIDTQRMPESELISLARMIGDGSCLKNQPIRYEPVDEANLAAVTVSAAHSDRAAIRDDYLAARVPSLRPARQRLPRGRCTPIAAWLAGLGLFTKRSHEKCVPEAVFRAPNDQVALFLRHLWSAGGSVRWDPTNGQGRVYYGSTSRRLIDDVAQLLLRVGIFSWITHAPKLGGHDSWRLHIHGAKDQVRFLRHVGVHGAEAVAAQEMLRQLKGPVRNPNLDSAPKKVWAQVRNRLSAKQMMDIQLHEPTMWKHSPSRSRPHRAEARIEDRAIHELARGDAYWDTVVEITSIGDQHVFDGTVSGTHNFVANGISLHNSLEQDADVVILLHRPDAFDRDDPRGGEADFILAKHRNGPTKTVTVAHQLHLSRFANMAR

[2] = CEM21 lymphoblast cell cytotoxicity, dose response, cytotoxicity control for viral fusion inhibitor project, CellTiter-Glo luminescence, cherry-picked (AID 652042); assay type: functional, cell-based;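 also: potency for signal decrease meaning cytotoxicity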
[3] = Luminescence Cell-Based Dose Retest to Confirm Inhibitors of Cancer Stem Cells. [Related pubchem assays (depositor defined):AID2717, AID2721]; assay type: functional; details: Homo sapiens
[4] = inhibitors of clade B AD8 Env fusion, dose response, cell-based, cherry-pick (AID 652062); assay type: functional;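 also: luciferase signal from cell-cell fusion driven by HIV-1 clade B AD8 Env; potency is for inhibitors of fusion seen as a drop in luminescence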
[5] = off-target signal loss in HeLa-CEM21 co-culture – HeLa F-luc CTL cells, cherry-picked, counter-screen for HIV-1 Env fusion inhibitor project, dose response (AID 652040); assay type: functional, cell-based;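 also: potency for signal decrease marking cytotoxic or nonspecific inhibition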
[6] = inhibitors of HIV Env-driven cell fusion, dose response, cherry-pick (AID 652057); assay type: functional, cell-based
Protein RecA = target: T2, Protein RecA (Mycobacterium tuberculosis, UniProt P9WHJ3); experiment: Fluorescence Cell-Free Homogeneous Dose Retest to Identify Inhibitors of RecA-Intein Splicing Activity. [Related pubchem assays (depositor defined):AID2097, AID2223, AID489010, AID492950]; assay type: functional
T2 sequence (P9WHJ3 whole entry): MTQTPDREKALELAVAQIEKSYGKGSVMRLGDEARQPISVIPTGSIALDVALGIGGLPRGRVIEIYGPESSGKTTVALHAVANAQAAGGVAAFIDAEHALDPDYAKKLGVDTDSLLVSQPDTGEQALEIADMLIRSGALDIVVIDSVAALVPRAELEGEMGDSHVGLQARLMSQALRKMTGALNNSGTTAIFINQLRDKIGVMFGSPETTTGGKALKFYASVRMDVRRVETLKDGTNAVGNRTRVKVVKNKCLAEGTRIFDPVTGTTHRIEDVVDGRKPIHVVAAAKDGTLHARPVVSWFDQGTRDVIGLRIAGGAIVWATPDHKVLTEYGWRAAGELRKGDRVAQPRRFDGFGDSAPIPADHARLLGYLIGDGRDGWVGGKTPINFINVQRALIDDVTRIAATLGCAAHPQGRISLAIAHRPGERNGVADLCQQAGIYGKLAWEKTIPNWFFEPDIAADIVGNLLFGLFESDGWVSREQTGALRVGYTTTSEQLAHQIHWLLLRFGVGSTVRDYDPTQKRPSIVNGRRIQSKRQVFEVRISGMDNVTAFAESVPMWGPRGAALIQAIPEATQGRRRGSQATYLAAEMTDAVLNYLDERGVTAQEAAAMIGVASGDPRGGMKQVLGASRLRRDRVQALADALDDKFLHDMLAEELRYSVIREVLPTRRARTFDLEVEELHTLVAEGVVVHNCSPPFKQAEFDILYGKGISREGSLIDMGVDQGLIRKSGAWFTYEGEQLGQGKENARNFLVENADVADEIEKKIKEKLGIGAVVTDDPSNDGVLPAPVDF

[7] = target: T3, Corticotropin-releasing factor receptor 2/Corticotropin-releasing factor-binding protein (Homo sapiens, UniProt P24387+Q13324); experiment: Dose Response confirmation of uHTS hits for small molecule antagonists of the CRF-binding protein and CRF-R2 receptor complex.; assay type: functional; details: read-out: IC50_Mean
T3 sequence (Q13324 whole entry): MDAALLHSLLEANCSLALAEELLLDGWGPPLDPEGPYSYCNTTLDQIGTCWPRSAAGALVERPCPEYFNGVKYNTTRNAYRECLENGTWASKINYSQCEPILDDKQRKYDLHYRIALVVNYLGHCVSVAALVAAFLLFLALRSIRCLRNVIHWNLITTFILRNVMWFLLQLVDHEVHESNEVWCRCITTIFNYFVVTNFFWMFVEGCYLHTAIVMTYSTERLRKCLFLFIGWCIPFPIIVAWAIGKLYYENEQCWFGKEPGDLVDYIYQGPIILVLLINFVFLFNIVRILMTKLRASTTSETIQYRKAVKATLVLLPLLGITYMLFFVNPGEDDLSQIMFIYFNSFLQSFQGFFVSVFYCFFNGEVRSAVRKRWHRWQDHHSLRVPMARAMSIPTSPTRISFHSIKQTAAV
T3 sequence (P24387 whole entry): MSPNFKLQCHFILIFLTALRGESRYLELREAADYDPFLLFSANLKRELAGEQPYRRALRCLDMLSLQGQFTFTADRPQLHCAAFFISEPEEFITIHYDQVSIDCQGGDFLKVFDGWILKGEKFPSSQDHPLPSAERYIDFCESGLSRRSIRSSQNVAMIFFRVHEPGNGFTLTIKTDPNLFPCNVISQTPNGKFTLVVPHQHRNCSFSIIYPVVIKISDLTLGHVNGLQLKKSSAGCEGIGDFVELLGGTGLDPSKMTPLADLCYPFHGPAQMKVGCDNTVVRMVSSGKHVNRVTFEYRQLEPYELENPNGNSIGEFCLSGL

[8] = target: T3, Corticotropin-releasing factor receptor 2/Corticotropin-releasing factor-binding protein; experiment: activators of CRF receptor 2 with binding protein – uHTS hits, confirmation (AID 602473); assay type: functional; details: read-out: EC50_Mean
[9] = CRF-BP/CRF-R2 complex antagonists, dose response, cell-based, uHTS hits, 384-well (AID 651639); assay type: functional, Homo sapiens; details: read-out: IC50_Mean
[10] = human group III sPLA2 inhibitors, dose response, biochemical, QFRET, IC50 (AID 743457);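 also: green fluorescence rise as the enzyme cleaves BODIPY PC-A2 in liposomes; potency for inhibition of the enzyme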
cells = assay type: functional, cell-based
[11] = target: T4, Nuclear receptor subfamily 0 group B member 1 (Homo sapiens, UniProt P51843); assay type: functional, cell-based;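 also: HEK293T cells transfected with SF-1 and DAX-1 plus StAR promoter luciferase reporter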
T4 sequence (P51843 whole entry): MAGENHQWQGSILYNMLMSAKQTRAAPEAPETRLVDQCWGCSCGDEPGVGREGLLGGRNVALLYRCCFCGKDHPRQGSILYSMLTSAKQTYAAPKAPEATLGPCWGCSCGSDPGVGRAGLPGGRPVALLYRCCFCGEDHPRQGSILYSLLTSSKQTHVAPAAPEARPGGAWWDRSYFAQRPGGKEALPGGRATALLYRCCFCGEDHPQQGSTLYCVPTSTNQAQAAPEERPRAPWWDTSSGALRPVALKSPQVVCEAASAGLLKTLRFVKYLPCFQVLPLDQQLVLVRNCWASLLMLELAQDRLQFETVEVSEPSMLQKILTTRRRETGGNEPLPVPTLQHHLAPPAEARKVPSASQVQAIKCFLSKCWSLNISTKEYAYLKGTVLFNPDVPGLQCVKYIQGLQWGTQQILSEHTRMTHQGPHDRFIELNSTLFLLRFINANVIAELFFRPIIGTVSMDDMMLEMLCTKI

[12] = cytotoxicity in OVCAR8 ovarian cancer cells, dose response, PAX8 project, cell-based, plate reader, dry powder samples (AID 743197); assay type: functional; details: OVCAR-8
[13] = NIH:OVCAR-3 ovarian cancer cell cytotoxicity, dose response, PAX8 inhibitor project, plate reader, dry powder samples (AID 743044); assay type: functional, cell-based
[14] = IGROV1 ovarian cancer cell cytotoxicity, dose response, PAX8 inhibitor project, plate reader, dry powder samples (AID 743043); assay type: functional, cell-based; details: IGROV-1
[15] = NIH/3T3 fibroblast cytotoxicity, dose response, cytotoxicity control for T. cruzi growth inhibitor project, cell-based, cherry-pick samples, set 2 (AID 651817); assay type: functional; details: NIH3T3
[16] = A2780 ovarian cancer cell cytotoxicity, dose response, cytotoxicity control, plate reader, dry powder samples (AID 743046); assay type: functional, cell-based
Paired box protein Pax-8 = Paired box protein Pax-8 (Homo sapiens, UniProt Q06710); experiment: inhibitors of PAX8-driven TPO luciferase reporter, dose response, RMG-I cells, cherry-pick (AID 687027); assay type: functional, cell-based;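 also: luciferase reporter driven by Pax8 target thyroperoxidase promoter measured by SteadyGlo luminescence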
Sequence of Paired box protein Pax-8 (Q06710 whole entry, the tested form may be a part): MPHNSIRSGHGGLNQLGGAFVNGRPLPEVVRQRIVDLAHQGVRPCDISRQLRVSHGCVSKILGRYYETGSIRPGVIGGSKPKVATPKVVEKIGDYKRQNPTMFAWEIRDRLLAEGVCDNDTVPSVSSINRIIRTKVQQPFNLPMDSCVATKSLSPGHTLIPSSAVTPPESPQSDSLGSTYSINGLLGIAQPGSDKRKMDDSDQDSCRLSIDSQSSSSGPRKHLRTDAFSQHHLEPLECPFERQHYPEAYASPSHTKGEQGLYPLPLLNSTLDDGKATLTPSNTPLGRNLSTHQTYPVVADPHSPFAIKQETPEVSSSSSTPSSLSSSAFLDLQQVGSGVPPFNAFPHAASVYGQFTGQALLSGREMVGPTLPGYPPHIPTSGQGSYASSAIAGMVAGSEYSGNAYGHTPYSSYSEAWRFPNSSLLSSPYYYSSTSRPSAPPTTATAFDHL

[17] = ZM109 Env clade C HIV-1 fusion inhibitors, dose response, HeLa effector, CEM target cells, luciferase, cherry-pick (AID 652058); assay type: functional, cell-based
[18] = T. cruzi intracellular amastigote growth inhibition, dose response, imaging, CA-I/72 strain, bovine embryo skeletal muscle, dry powder (AID 651885); assay type: functional, cell-based
[19] = T. cruzi growth inhibition in host cells, dose response, cell-based, plate reader, dry powder, set 2 (AID 652275); assay type: functional

COc1ccccc1/C=C/C1(C(=O)NC2CCCC2)CC(=O)N1c1ccc(F)cc1 (configuration not stated)
AC50 [1]: 3.57 µM (active) | AC50 [2]: 12.7 µM (active) | AC50 [3]: 6.36 µM (active) | AC50 [4]: 25.2 µM (active) | AC50 [5]: 5.48 µM (active) | AC50 [6]: 3.35 µM (active) | EC50 (Protein RecA): 2.82 µM (active)

CC1(C)CC(=O)C(C2C3=C(CC(C)(C)CC3=O)Oc3ccc4ccccc4c32)C(=O)C1 (configuration not stated)
IC50 [7]: 14.8 µM (active) | EC50 [8]: 31.8 µM (active) | IC50 [9]: > 20 µM (inactive)

Cc1ccc(C)c(NC(S)=NNC(=O)c2csc(C)c2C)c1
IC50 [10]: > 122 µM (inactive)

COc1ccc(C(=O)Nc2nnc(SCC(=O)NC3CCCC3)s2)c(OC)c1
IC50 (cells): > 67.5 µM (inactive) | IC50 [11]: > 0.0926 µM (active)

C[C@@H]1CN([C@@H](C)CO)C(=O)Cc2cc(NS(=O)(=O)c3ccc(F)cc3)ccc2O[C@H]1CN(C)Cc1ccc(Cl)c(Cl)c1
AC50 [12]: 49.4 µM (active) | AC50 [13]: 27.8 µM (active) | AC50 [14]: 12.6 µM (active) | AC50 [4]: 1.52 µM (active) | AC50 [15]: 7.33 µM (active) | AC50 [16]: 45.6 µM (active) | AC50 (Paired box protein Pax-8): 3.12 µM (active) | AC50 [6]: 15.4 µM (active) | AC50 [17]: 1.33 µM (active)

CC(C)N1C[C@H](C)[C@@H](CN(C)CC2CCOCC2)Oc2c(NC(=O)c3ccncc3)cccc2C1=O
IC50 [18]: 5.83 µM (inconclusive)

CC(C)N1C[C@@H](CN(C)Cc2ccc(Cl)cc2)Oc2c(NC(=O)c3ncn[nH]3)cccc2C1=O
AC50 [19]: 5.99 µM (active)

Cc1cccc(NC(=O)c2cccc([N+](=O)[O-])c2O)c1C
IC50 [7]: 5.93 µM (active) | EC50 [8]: > 53 µM (inactive) | IC50 [9]: > 20 µM (inactive)
